ChEMBL document CHEMBL1201862, “PubChem BioAssay data set” (2004)
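All cell lines were grown in 96-well plates and treated with compound for 48 hours. Here, GI50 denotes the concentration required for 50% inhibition of growth.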 Activity calls are given as the source filed them. Rule as the data show it: active = GI50 up to about 1.1 µM and inactive = higher.

Tests used:
Experiment in all cases: NCI tumour cell line growth inhibition, 48 h
SW-620 = system: SW-620
A498 = system: A498
IGROV-1 = system: IGROV-1
COLO 205 = system: COLO 205
XF498 = system: XF498
Malme-3M = system: Malme-3M
SK-MEL-28 = system: SK-MEL-28
SF-268 = system: SF-268
HCT-116 = system: HCT-116
RPMI-8226 = system: RPMI-8226
UO-31 = system: UO-31
SF-539 = system: SF-539
SN12C = system: SN12C
HOP-92 = system: HOP-92
TK-10 = system: TK-10
DMS-114 = system: DMS-114
M19-MEL = system: M19-MEL
HCC 2998 = system: HCC 2998
UACC-257 = system: UACC-257
RXF 393 = system: RXF 393

SMILES	GI50 (SW-620)	GI50 (A498)	GI50 (IGROV-1)	GI50 (COLO 205)	GI50 (XF498)	GI50 (Malme-3M)	GI50 (SK-MEL-28)	GI50 (SF-268)	GI50 (HCT-116)	GI50 (RPMI-8226)	GI50 (UO-31)	GI50 (SF-539)	GI50 (SN12C)	GI50 (HOP-92)	GI50 (TK-10)	GI50 (DMS-114)	GI50 (M19-MEL)	GI50 (HCC 2998)	GI50 (UACC-257)	GI50 (RXF 393)
CCOc1ccc(/C(C=O)=C(\Cl)c2ccc(OC)c(OC)c2)cc1	> 100 µM (inactive)	> 100 µM (inactive)	> 100 µM (inactive)	> 100 µM (inactive)	45.2 µM (inactive)	> 100 µM (inactive)	> 100 µM (inactive)	42.6 µM (inactive)	> 100 µM (inactive)	> 100 µM (inactive)	> 100 µM (inactive)	83.2 µM (inactive)	> 100 µM (inactive)	> 100 µM (inactive)	> 100 µM (inactive)	> 100 µM (inactive)	> 100 µM (inactive)			
Clc1ccc(C[P+](c2ccccc2)(c2ccccc2)c2ccccc2)c(Cl)c1	2.94 µM (inactive)	4.61 µM (inactive)	1.87 µM (inactive)	1.16 µM (inactive)	1.61 µM (inactive)	3.87 µM (inactive)	5.98 µM (inactive)	3.94 µM (inactive)	1.63 µM (inactive)	0.463 µM (active)		3.06 µM (inactive)	2.7 µM (inactive)	1.71 µM (inactive)	6.52 µM (inactive)	1.52 µM (inactive)	1.88 µM (inactive)	3.47 µM (inactive)	1.04 µM (active)	2.7 µM (inactive)
COC(=O)C1C(C)N1C (stereo unspecified)	> 100 µM (inactive)		> 100 µM (inactive)	> 100 µM (inactive)	64.3 µM (inactive)		> 100 µM (inactive)			> 100 µM (inactive)		> 100 µM (inactive)	> 100 µM (inactive)	> 100 µM (inactive)	> 100 µM (inactive)	> 100 µM (inactive)	> 100 µM (inactive)	> 100 µM (inactive)	> 100 µM (inactive)	> 100 µM (inactive)
O=C1c2ccccc2C(=O)N1CC(O)COc1cccc2ccccc12 (stereo unspecified)	> 100 µM (inactive)	73.5 µM (inactive)	> 100 µM (inactive)	> 100 µM (inactive)		61.8 µM (inactive)	> 100 µM (inactive)	85.3 µM (inactive)	> 100 µM (inactive)	> 100 µM (inactive)	> 100 µM (inactive)				> 100 µM (inactive)			> 100 µM (inactive)	> 100 µM (inactive)	
O=C(/C=N/c1ccccc1S)c1ccco1	14.7 µM (inactive)		9.33 µM (inactive)	17.2 µM (inactive)		18.9 µM (inactive)	15.8 µM (inactive)	18.7 µM (inactive)	3.15 µM (inactive)	14.8 µM (inactive)	1.86 µM (inactive)	14.1 µM (inactive)	8.09 µM (inactive)		19.1 µM (inactive)	15.3 µM (inactive)	12.2 µM (inactive)		17.7 µM (inactive)	15.4 µM (inactive)
CCOC(=O)NC(Nc1ccc(Cl)cn1)(C(F)(F)F)C(F)(F)F		> 100 µM (inactive)				> 100 µM (inactive)	> 100 µM (inactive)	> 100 µM (inactive)	> 100 µM (inactive)	> 100 µM (inactive)	41.4 µM (inactive)	> 100 µM (inactive)			> 100 µM (inactive)			> 100 µM (inactive)	> 100 µM (inactive)	97.5 µM (inactive)
OC[C@H]1O[C@@H](n2cnc3cncnc32)[C@H](O)[C@@H]1O [NEBULARINE]	0.462 µM (active)	1.52 µM (inactive)	0.64 µM (active)	0.417 µM (active)	< 0.01 µM (active)	2.03 µM (inactive)	1.39 µM (inactive)	1.09 µM (active)	0.321 µM (active)	0.714 µM (active)	1.28 µM (inactive)	1.43 µM (inactive)	1.4 µM (inactive)	0.656 µM (active)		1.21 µM (inactive)	3.27 µM (inactive)	0.989 µM (active)	1.61 µM (inactive)	1.31 µM (inactive)
CCOC(=O)NC(Nc1ncccn1)(C(=O)OCC)C(F)(F)F (stereo unspecified)	> 100 µM (inactive)		> 100 µM (inactive)	> 100 µM (inactive)			> 100 µM (inactive)	> 100 µM (inactive)	> 100 µM (inactive)	> 100 µM (inactive)	> 100 µM (inactive)	> 100 µM (inactive)	> 100 µM (inactive)	> 100 µM (inactive)	> 100 µM (inactive)			> 100 µM (inactive)	> 100 µM (inactive)	> 100 µM (inactive)
